ChEMBL document CHEMBL1144281, “Inhibitors of type I MetAPs containing pyridine-2-carboxylic acid thiazol-2-ylamide. Part 2: SAR studies on the pyridine ring 3-substituent” (Bioorg Med Chem Lett, 2005)

What was measured:
[1] = Inhibitory concentration against Methionine aminopeptidase-1 (EcMetAP1); parameters: species or system Escherichia coli
[2] = Inhibitory concentration against Methionine aminopeptidase-1 (ScMetAP1); parameters: species or system Saccharomyces cerevisiae

Compound | IC50 [1] [µM] | IC50 [2] [µM]
C=CC(=O)Nc1cccnc1C(=O)Nc1nccs1 | > 100 | 0.62
O=C(CC1CCCC1)Nc1cccnc1C(=O)Nc1nccs1 | 0.79 | 6.72
CC1(C)OC1CC(=O)Nc1cccnc1C(=O)Nc1nccs1 (centres undefined) | 0.7 | 3.37
C=CCCC(=O)Nc1cccnc1C(=O)Nc1nccs1 | 0.51 | 12.2
O=C(O)CCC(=O)Nc1cccnc1C(=O)Nc1nccs1 | 0.14 | 2.27
O=C(Nc1nccs1)c1ncccc1NC(=O)C1CCC1 | > 100 | > 100
O=C(Nc1nccs1)c1ncccc1NC(=O)C1CCCC1 | 0.35 | 2.58
O=C(O)CC(=O)Nc1cccnc1C(=O)Nc1nccs1 | 0.14 | 1.52
O=C(Nc1nccs1)c1ncccc1NC(=O)C1CC1 | 0.13 | 2.56
O=C(Nc1nccs1)c1ncccc1NC(=O)C1CC=CCC1 (centres undefined) | 0.81 | 15.1
O=C(CC1=CCCC1)Nc1cccnc1C(=O)Nc1nccs1 | 0.19 | 5.07
CC(C)=CC(=O)Nc1cccnc1C(=O)Nc1nccs1 | 0.22 | 0.77
CC(C)=CCC(=O)Nc1cccnc1C(=O)Nc1nccs1 | 0.24 | 0.14
O=C(O)c1ccccc1C(=O)Nc1cccnc1C(=O)Nc1nccs1 | 0.33 | 2.27
O=C(Nc1cccnc1C(=O)Nc1nccs1)C1=CCCCC1 | 0.97 | 21.9
O=C(CC1=CCCCC1)Nc1cccnc1C(=O)Nc1nccs1 | 0.12 | 8.91
O=C(O)C(=O)Nc1cccnc1C(=O)Nc1nccs1 | 0.62 | > 100
C/C=C/C(=O)Nc1cccnc1C(=O)Nc1nccs1 | > 100 | 0.82
CC1(C)OC1CCC(=O)Nc1cccnc1C(=O)Nc1nccs1 (centres undefined) | 0.56 | 3.3
O=C(Nc1cccnc1C(=O)Nc1nccs1)C1=CCCC1 | 0.36 | 5.17
CC(C)=CCCC(=O)Nc1cccnc1C(=O)Nc1nccs1 | 0.61 | 0.31
O=C(Nc1nccs1)c1ccccn1 | 5 | 7
C=CCC(=O)Nc1cccnc1C(=O)Nc1nccs1 | 0.13 | 0.38
C=C(C)CC(=O)Nc1cccnc1C(=O)Nc1nccs1 | 0.15 | 4.67

Second part, the compound after the results:

IC50 [1] [µM] | IC50 [2] [µM] | Compound
0.059 | 0.51 | O=C(CN1CCOCC1)Nc1cccnc1C(=O)Nc1nccs1
0.053 | 0.19 | O=C(CN1CCCCC1)Nc1cccnc1C(=O)Nc1nccs1
0.09 | 0.15 | O=C(CN1CCCC1)Nc1cccnc1C(=O)Nc1nccs1
0.057 | 0.23 | O=C(CN(O)c1ccccc1)Nc1cccnc1C(=O)Nc1nccs1
0.049 | 0.38 | CC(C)(C)OC(=O)NCC(=O)Nc1cccnc1C(=O)Nc1nccs1
0.06 | 0.33 | O=C(Nc1cccnc1C(=O)Nc1nccs1)c1cccnc1
0.12 | 0.42 | CN(C)CC(=O)Nc1cccnc1C(=O)Nc1nccs1
0.05 | 0.77 | CCOC(=O)C(=O)Nc1cccnc1C(=O)Nc1nccs1
0.075 | 0.72 | CCOC(=O)CC(=O)Nc1cccnc1C(=O)Nc1nccs1
0.049 | 0.23 | CCN(CC)CC(=O)Nc1cccnc1C(=O)Nc1nccs1
0.049 | 0.15 | CC(C)(C)OC(=O)NCCC(=O)Nc1cccnc1C(=O)Nc1nccs1
0.092 | 0.21 | NCC(=O)Nc1cccnc1C(=O)Nc1nccs1
0.074 | 0.13 | NCCC(=O)Nc1cccnc1C(=O)Nc1nccs1
